Measurements taken from ChEMBL document CHEMBL1144685, “Naphthamides as novel and potent vascular endothelial growth factor receptor tyrosine kinase inhibitors: design, synthesis, and evaluation” (J Med Chem, 2008).
The source made the active and inactive calls. No cut-off for these calls is given here.

How the values were obtained:
HUVEC [1] = assay: cells; conditions: Homo sapiens
Description: Inhibition of bFGF-induced proliferation of HUVEC cells

[2] = target: Vascular endothelial growth factor receptor 2 (Homo sapiens, UniProt P35968)
Description: Inhibition of KDR by HTRF assay

HUVEC [3] = assay: cells; conditions: Homo sapiens; remark: listed apart in the source
Description: Inhibition of VEGF-induced proliferation of HUVEC cells

[4] = Volume of distribution at steady state in Sprague-Dawley rat at 1 mg/kg, iv; type: ADME, organism-based; parameters: dose 1 mg/kg, route intravenous; conditions: in vivo, read-out: Vdss
[5] = Clearance in Sprague-Dawley rat at 1 mg/kg, iv; type: ADME, organism-based; parameters: dose 1 mg/kg, route intravenous; conditions: in vivo
Cytochrome P450 2D6 = Cytochrome P450 2D6 (Homo sapiens, UniProt P10635)
[6] = Oral bioavailability in Sprague-Dawley rat at 2 mg/kg; type: ADME, organism-based; conditions: in vivo
[7] = Mean retention time in Sprague-Dawley rat at 1 mg/kg, iv; type: ADME, organism-based; parameters: dose 1 mg/kg, route intravenous; conditions: in vivo
[8] = Half life in Sprague-Dawley rat at 1 mg/kg, iv; type: ADME, organism-based; parameters: dose 1 mg/kg, route intravenous; conditions: in vivo
[9] = AUC (0 to 24 hrs) in Sprague-Dawley rat at 2 mg/kg, po; type: ADME, organism-based; parameters: time < 24 hr, dose 2 mg/kg, route oral; conditions: plasma
[10] = Intrinsic clearance in rat liver microsomes; type: ADME, Microsome
Cytochrome P450 3A4 = Cytochrome P450 3A4 (Homo sapiens, UniProt P08684)
[11] = Cmax in Sprague-Dawley rat at 2 mg/kg, po; type: ADME, organism-based; parameters: dose 2 mg/kg, route oral; conditions: in vivo
[12] = Intrinsic clearance in human liver microsomes; type: ADME, Microsome
HT-29 [13] = assay: Antitumor activity against human HT29 cell xenografted CD1 nu/nu mouse assessed as inhibition of tumor growth at 10 mg/kg, po after 7 days; type: functional, organism-based; parameters: dose 10 mg/kg
Mus musculus [14] = assay: Inhibition of vascular permeability in HEK293 cells over expressing recombinant mouse VEGF implanted CD1 nu/nu mouse at 30 mg/kg, po by Matrigel plug assay; type: functional, organism-based; parameters: dose 30 mg/kg
HT-29 [15] = assay: Antitumor activity against human HT29 cell xenografted CD1 nu/nu mouse assessed as inhibition of tumor growth at 30 mg/kg, po after 10 days; type: functional, organism-based; parameters: dose 30 mg/kg
Mus musculus [16] = species: Mus musculus; assay: Inhibition of mouse KDR phosphorylation in BALB/c mouse lung assessed as phosphorylated Flk1 level by Delphia assay; type: functional, organism-based
Mus musculus [17] = assay: Inhibition of vascular permeability in HEK293 cells over expressing recombinant mouse VEGF implanted CD1 nu/nu mouse at 100 mg/kg, po by Matrigel plug assay; type: functional, organism-based; parameters: dose 100 mg/kg
[18] = Cmax in Sprague-Dawley rat at 10 mg/kg, po; type: ADME, organism-based; parameters: dose 10 mg/kg, route oral; conditions: in vivo
[19] = Oral bioavailability in Sprague-Dawley rat at 10 mg/kg; type: ADME, organism-based; conditions: in vivo
[20] = AUC (0 to 24 hrs) in Sprague-Dawley rat at 10 mg/kg, po; type: ADME, organism-based; parameters: time < 24 hr, dose 10 mg/kg, route oral; conditions: plasma
[21] = Half life in Sprague-Dawley rat at 0.25 mg/kg, iv; type: ADME, organism-based; parameters: dose 0.25 mg/kg, route intravenous; conditions: in vivo
[22] = Mean retention time in Sprague-Dawley rat at 0.25 mg/kg, iv; type: ADME, organism-based; parameters: dose 0.25 mg/kg, route intravenous; conditions: in vivo
[23] = Volume of distribution at steady state in Sprague-Dawley rat at 0.25 mg/kg, iv; type: ADME, organism-based; parameters: dose 0.25 mg/kg, route intravenous; conditions: in vivo, read-out: Vdss
[24] = Clearance in Sprague-Dawley rat at 0.25 mg/kg, iv; type: ADME, organism-based; parameters: dose 0.25 mg/kg, route intravenous; conditions: in vivo
[25] = AUC (0 to 24 hrs) in Sprague-Dawley rat at 2 mg/kg; type: ADME, organism-based; parameters: time < 24 hr, dose 2 mg/kg; conditions: plasma
[26] = Cmax in Sprague-Dawley rat at 2 mg/kg; type: ADME, organism-based; parameters: dose 2 mg/kg; conditions: in vivo
[27] = Mean retention time in Sprague-Dawley rat at 0.5 mg/kg, iv; type: ADME, organism-based; parameters: dose 0.5 mg/kg, route intravenous; conditions: in vivo
[28] = Volume of distribution at steady state in Sprague-Dawley rat at 0.5 mg/kg, iv; type: ADME, organism-based; parameters: dose 0.5 mg/kg, route intravenous; conditions: in vivo, read-out: Vdss
[29] = Half life in Sprague-Dawley rat at 0.5 mg/kg, iv; type: ADME, organism-based; parameters: dose 0.5 mg/kg, route intravenous; conditions: in vivo
[30] = Clearance in Sprague-Dawley rat at 0.5 mg/kg, iv; type: ADME, organism-based; parameters: dose 0.5 mg/kg, route intravenous; conditions: in vivo

Sequence of Vascular endothelial growth factor receptor 2 (P35968 whole entry): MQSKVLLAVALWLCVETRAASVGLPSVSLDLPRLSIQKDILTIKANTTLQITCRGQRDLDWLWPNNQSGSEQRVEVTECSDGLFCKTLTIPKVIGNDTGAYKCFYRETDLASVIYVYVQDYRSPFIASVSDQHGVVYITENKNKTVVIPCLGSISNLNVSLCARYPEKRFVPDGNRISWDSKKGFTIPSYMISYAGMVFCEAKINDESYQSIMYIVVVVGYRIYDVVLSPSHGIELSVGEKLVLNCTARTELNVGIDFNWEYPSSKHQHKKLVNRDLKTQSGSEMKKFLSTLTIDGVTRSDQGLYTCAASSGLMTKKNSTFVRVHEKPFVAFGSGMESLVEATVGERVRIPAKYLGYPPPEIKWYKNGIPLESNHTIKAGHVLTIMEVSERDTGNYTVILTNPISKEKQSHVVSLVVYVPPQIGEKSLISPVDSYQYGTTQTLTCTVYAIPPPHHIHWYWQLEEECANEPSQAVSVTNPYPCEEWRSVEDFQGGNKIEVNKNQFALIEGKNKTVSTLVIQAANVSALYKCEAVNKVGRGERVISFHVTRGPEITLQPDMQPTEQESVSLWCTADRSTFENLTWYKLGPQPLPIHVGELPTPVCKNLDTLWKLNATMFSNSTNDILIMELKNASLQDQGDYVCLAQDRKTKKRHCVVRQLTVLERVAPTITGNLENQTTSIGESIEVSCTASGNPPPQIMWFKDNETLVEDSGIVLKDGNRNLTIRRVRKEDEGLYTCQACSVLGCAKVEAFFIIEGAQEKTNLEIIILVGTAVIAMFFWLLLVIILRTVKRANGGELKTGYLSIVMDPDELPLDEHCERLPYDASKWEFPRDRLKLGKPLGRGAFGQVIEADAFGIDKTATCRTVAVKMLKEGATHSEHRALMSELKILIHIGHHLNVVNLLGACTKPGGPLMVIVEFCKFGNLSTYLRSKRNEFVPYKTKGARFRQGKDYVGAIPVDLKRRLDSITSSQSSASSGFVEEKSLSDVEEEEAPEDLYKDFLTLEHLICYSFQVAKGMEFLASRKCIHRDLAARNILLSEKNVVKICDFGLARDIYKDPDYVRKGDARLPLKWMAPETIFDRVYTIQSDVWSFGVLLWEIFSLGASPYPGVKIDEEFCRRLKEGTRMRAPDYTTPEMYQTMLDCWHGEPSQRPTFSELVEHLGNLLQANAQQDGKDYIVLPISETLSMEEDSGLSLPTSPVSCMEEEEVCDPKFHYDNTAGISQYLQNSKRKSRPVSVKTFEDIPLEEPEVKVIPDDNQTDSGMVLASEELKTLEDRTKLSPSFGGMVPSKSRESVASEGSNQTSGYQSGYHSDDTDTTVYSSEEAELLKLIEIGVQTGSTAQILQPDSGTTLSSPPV
Sequence of Cytochrome P450 3A4 (P08684 whole entry): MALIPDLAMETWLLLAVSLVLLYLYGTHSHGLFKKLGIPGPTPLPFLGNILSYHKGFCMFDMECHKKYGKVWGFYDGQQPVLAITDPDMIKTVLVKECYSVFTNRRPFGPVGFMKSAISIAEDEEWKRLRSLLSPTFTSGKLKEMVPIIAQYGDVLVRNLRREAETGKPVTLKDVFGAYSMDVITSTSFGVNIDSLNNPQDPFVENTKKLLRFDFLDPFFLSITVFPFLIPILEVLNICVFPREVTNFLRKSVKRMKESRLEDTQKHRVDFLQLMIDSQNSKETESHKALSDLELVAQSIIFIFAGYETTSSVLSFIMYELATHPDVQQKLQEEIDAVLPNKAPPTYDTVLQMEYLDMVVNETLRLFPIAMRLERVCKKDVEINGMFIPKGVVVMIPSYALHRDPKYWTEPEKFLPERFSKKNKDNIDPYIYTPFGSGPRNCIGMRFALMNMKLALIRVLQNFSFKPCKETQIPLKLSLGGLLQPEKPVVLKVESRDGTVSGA
Sequence of Cytochrome P450 2D6 (P10635 whole entry): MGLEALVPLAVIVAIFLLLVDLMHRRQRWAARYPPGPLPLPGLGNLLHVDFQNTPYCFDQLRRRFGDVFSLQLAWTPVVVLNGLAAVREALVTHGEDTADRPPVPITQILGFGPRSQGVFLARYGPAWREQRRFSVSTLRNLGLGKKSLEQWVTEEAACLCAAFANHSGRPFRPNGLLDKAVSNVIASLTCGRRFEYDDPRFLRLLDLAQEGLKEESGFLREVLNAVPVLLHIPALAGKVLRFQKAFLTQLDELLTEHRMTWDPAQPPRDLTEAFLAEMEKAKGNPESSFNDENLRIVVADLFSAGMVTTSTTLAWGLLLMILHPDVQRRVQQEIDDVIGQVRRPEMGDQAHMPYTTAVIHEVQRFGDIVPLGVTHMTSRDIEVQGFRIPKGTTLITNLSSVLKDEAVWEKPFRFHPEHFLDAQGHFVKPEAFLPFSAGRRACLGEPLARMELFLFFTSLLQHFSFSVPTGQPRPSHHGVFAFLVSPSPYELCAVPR

Compound	IC50 (HUVEC [1])	IC50 [2]	IC50 (HUVEC [3])	other results
COc1cc2nccc(Oc3ccc4c(C(=O)Nc5ccc(C(F)(F)F)cc5)cccc4c3)c2cc1OC	228 nM	0.5 nM	16 nM	
COc1cc2ncc(F)c(Oc3ccc4c(C(=O)Nc5ccc(Cl)cc5)cccc4c3)c2cc1OC	> 1100 nM	20 nM	69 nM	
COc1cc2nccc(Oc3ccc4c(C(=O)Nc5cccc(Cl)c5)cccc4c3)c2cc1OC		0.3 nM	5.1 nM	
CNc1cc(Oc2ccc3c(C(=O)Nc4ccc(Cl)cc4)cccc3c2)ccn1	> 1100 nM	7 nM	140 nM	
CNc1nccc(Oc2ccc3c(C(=O)Nc4ccc(Cl)cc4)cccc3c2)n1	> 1100 nM	46 nM	296 nM	
COc1cc2nccc(Oc3ccc4c(C(=O)Nc5ccccc5F)cccc4c3)c2cc1OC	> 1140 nM	2 nM	7 nM	
COc1cc2nccc(Nc3ccc4c(C(=O)Nc5ccc(Cl)cc5)cccc4c3)c2cc1OC	115 nM	8 nM	14 nM	
COc1cc2nccc(Oc3ccc4c(C(=O)Nc5ccccn5)cccc4c3)c2cc1OC	286 nM	0.8 nM	2 nM	Vd [4]: 3.1 L/kg; clearance [5]: 6.67 mL/min/kg; IC50 (Cytochrome P450 2D6): > 50000 nM; bioavailability [6]: 45%; MRT [7]: 7.8 h; half-life [8]: 6.1 h; AUC(0-t) at 24 h [9]: 1240 ng·h/mL; microsomal CLint [10]: 90 µL/min/mg; IC50 (Cytochrome P450 3A4): 13000 nM; Cmax [11]: 200 ng/mL; microsomal CLint [12]: 80 µL/min/mg
COc1cc2nccc(Oc3ccc4c(C(=O)Nc5ccc(Cl)cc5)ccnc4c3)c2cc1OC	88 nM	22 nM	10 nM	
COc1cc2nccc(Oc3ccc4c(C(=O)Nc5ccc(C(C)(C)C)cc5)cccc4c3)c2cc1OC	944 nM	0.7 nM	63 nM	
COc1cc2nccc(Oc3ccc4c(C(=O)Nc5ccc(F)cc5)cccc4c3)c2cc1OC	305 nM	1 nM	2 nM	
COc1cc2nccc(Oc3ccc4c(C(=O)Nc5ccc(Cl)c(C(F)(F)F)c5)cccc4c3)c2cc1OC	228 nM	1 nM	247 nM	
COc1cc2nccc(Oc3ccc4c(C(=O)Nc5cccc(F)c5)cccc4c3)c2cc1OC		0.6 nM	3 nM	
COc1cc2nccc(Oc3ccc4c(C(=O)NC5(C)CC5)cccc4c3)c2cc1OC		15 nM		
COc1cc2nccc(Oc3cc4cccc(C(=O)Nc5ccc(Cl)cc5)c4cn3)c2cc1OC	> 1140 nM	23 nM	175 nM	
COc1cc2nccc(Oc3ccc4c(C(=O)NC5CCC5)cccc4c3)c2cc1OC	> 1140 nM	3 nM	7 nM	
COc1cc2nccc(Oc3ccc4c(C(=O)Nc5ccc(C)cc5)cccc4c3)c2cc1OC	548 nM	0.5 nM	2 nM	
COc1cc2nccc(Oc3ccc4c(C(=O)Nc5cc(C)on5)cccc4c3)c2cc1OC	250 nM	0.6 nM	6 nM	
O=C(Nc1ccc(Cl)cc1)c1cccc2cc(Oc3ccncn3)ccc12		310 nM		
COc1ccc2c(Oc3ccc4c(C(=O)Nc5ccc(Cl)cc5)cccc4c3)ccnc2c1	> 1100 nM	1 nM	8 nM	
COc1cc2nccc(Oc3ccc4c(C(=O)Nc5cccc(C(F)(F)F)c5)cccc4c3)c2cc1OC	205 nM	0.5 nM	34 nM	
COc1cc2nccc(Oc3ccc4c(C(=O)Nc5ccc(Cl)cc5)cccc4c3)c2cc1C(N)=O	380 nM	0.2 nM	3 nM	

Compound	IC50 (HUVEC [1])	IC50 [2]	IC50 (HUVEC [3])	other results
O=C(Nc1ccc(Cl)cc1)c1cccc2cc(Oc3ccncc3)ccc12	> 1100 nM	18 nM	220 nM	
COc1cc2nccc(Oc3ccc4c(C(=O)Nc5nccs5)cccc4c3)c2cc1OC	605 nM		2 nM	
O=C(Nc1ccc(Cl)cc1)c1cccc2cc(Oc3ccnc4ccccc34)ccc12	> 1100 nM	4 nM	34 nM	
COc1cc2nccc(Oc3ccc4c(C(=O)Nc5cc(Cl)cc(Cl)c5)cccc4c3)c2cc1OC	742 nM	0.3 nM	28 nM	
CCCNC(=O)c1cccc2cc(Oc3ccnc4cc(OC)c(OC)cc34)ccc12	> 1140 nM	1.3 nM	7 nM	
COc1cc2nccc(N(C)c3ccc4c(C(=O)Nc5ccc(Cl)cc5)cccc4c3)c2cc1OC		> 1400 nM		
COc1cc2nccc(Oc3ccc4c(C(=O)Nc5ccc(Cl)cc5)cccc4c3)c2cc1OC				Activity (HT-29 [13]): Active; Activity (Mus musculus [14]): Dose-dependent effect; Activity (HT-29 [15]): Active; Activity (Mus musculus [16]): Active; Activity (Mus musculus [17]): Dose-dependent effect
COc1cc2nccc(Oc3ccc4c(C(=O)Nc5cccnc5)cccc4c3)c2cc1OC	1100 nM	0.8 nM	2 nM	Cmax [18]: 5710 ng/mL; Vd [4]: 1.3 L/kg; clearance [5]: 15 mL/min/kg; IC50 (Cytochrome P450 2D6): 17000 nM; bioavailability [19]: 100%; MRT [7]: 1.4 h; half-life [8]: 1.1 h; AUC(0-t) at 24 h [20]: 27100 ng·h/mL; microsomal CLint [10]: 90 µL/min/mg; IC50 (Cytochrome P450 3A4): 2000 nM; microsomal CLint [12]: 90 µL/min/mg
COc1cc2nccc(Oc3ccc4c(C(=O)Nc5ccc(Cl)cc5)cccc4c3F)c2cc1OC	280 nM	0.3 nM	2 nM	half-life [21]: 17 h; MRT [22]: 22 h; IC50 (Cytochrome P450 2D6): > 50000 nM; bioavailability [6]: 50%; Vd [23]: 2.4 L/kg; clearance [24]: 1.67 mL/min/kg; microsomal CLint [10]: 30 µL/min/mg; IC50 (Cytochrome P450 3A4): > 50000 nM; AUC(0-t) at 24 h [25]: 6010 ng·h/mL; Cmax [26]: 610 ng/mL; microsomal CLint [12]: 30 µL/min/mg
CNC(=O)c1cc(Oc2ccc3c(C(=O)Nc4ccc(Cl)cc4)cccc3c2)ccn1	> 1100 nM	3 nM	210 nM	
COc1cc2nccc(Oc3ccc4c(C(=O)Nc5cc(C(C)(C)C)on5)cccc4c3)c2cc1OC	190 nM	0.8 nM	68 nM	
COc1cc2nccc(Oc3ccc4c(C(=O)Nc5ccon5)cccc4c3)c2cc1OC		0.2 nM		
COc1cc2nccc(Oc3ccc4c(C(=O)Nc5ccccc5)cccc4c3)c2cc1OC	577 nM	0.2 nM	0.8 nM	
COc1cc2nccc(Oc3ccc4c(C(=O)NC(C)C)cccc4c3)c2cc1OC	> 1140 nM	5 nM	4 nM	
O=C(Nc1ccc(Cl)cc1)c1cccc2cc(Oc3ncnc4[nH]ccc34)ccc12	> 1140 nM	28 nM	37 nM	
COc1cc2nccc(Oc3ccc4c(C(=O)Nc5ccncc5)cccc4c3)c2cc1OC	> 1140 nM	2 nM	2 nM	Cmax [18]: 1690 ng/mL; Vd [4]: 1.4 L/kg; clearance [5]: 10 mL/min/kg; IC50 (Cytochrome P450 2D6): 700 nM; bioavailability [19]: 62%; MRT [7]: 2.5 h; half-life [8]: 1.8 h; AUC(0-t) at 24 h [20]: 11000 ng·h/mL; microsomal CLint [10]: 80 µL/min/mg; IC50 (Cytochrome P450 3A4): 100 nM; microsomal CLint [12]: 30 µL/min/mg
COc1cc2nccc(Oc3ccc4c(C(=O)Nc5cc(C)no5)cccc4c3)c2cc1OC	> 1140 nM	1 nM	7 nM	IC50 (Cytochrome P450 2D6): > 50000 nM; MRT [27]: 2.1 h; Vd [28]: 2.7 L/kg; microsomal CLint [10]: 40 µL/min/mg; IC50 (Cytochrome P450 3A4): 40000 nM; half-life [29]: 2.4 h; clearance [30]: 21.7 mL/min/kg; microsomal CLint [12]: 40 µL/min/mg
COc1cc2nccc(Oc3ccc4c(C(=O)NC5CC5)cccc4c3)c2cc1OC			1 nM	
COc1cc2nccc(Oc3ccc4c(C(=O)Nc5ccc(Cl)cc5Cl)cccc4c3)c2cc1OC	> 1140 nM	2 nM	14 nM	
CNc1cc(Oc2ccc3c(C(=O)Nc4ccc(Cl)cc4)cccc3c2)ncn1	> 1100 nM	20 nM	106 nM	
COc1cc2nccc(Oc3ccc4c(C(=O)NC5CCCC5)cccc4c3)c2cc1OC	> 1140 nM	9 nM	7 nM	
